{"source": "patent US20190225670A1", "about": "“COMPOUNDS AND METHODS FOR ACTIVATING TIE2 SIGNALING” (ASCLEPIX THERAPEUTICS, LLC, priority 2016, published 2019)", "key": {"[1]": {"system": "phospho-Tie2 (Y992)", "experiment": "Immunofluorescence of phospho-Tie2 in MEC monolayers", "type": "cell-based, human", "details": "200 ng/ml Ang2 15 min and AXT107", "description": "As such, subsequent experiments evaluate the effects of AXT107 at cell-cell junctions in MEC monolayers using immunofluorescence microscopy rather than at the EC-ECM interface.\nGlass-bottomed, 96-well plates with half well size were coated with 10 μg/ml FN1 for two hours at 37° C. The FN1 solution was then removed by aspiration and the plate seeded with 4×10^3 MECs in EGM-2MV media. After twenty-four hours, the cells were washed once with dPBS containing Ca^2+ and Mg^2+ to remove dead cells and the cells were allowed to grow for an additional twenty-four hours. For three-hour duration treatments (i.e., VE-cadherin), cells were washed twice with dPBS containing Ca^2+ and Mg^2+ and serum starved in EBM-2 for ninety minutes. The media was then removed and the cells were treated for three hours with 100 μl of EBM-2 media containing 200 ng/ml Ang2 or PBS and varying concentrations of AXT107 or DMSO. For fifteen minute-treated samples (i.e., phospho-Tie2), the cells were serum starved in EBM-2 media for 165 minutes, incubated for ninety minutes with varying concentrations of AXT107 or DMSO in EBM-2, and finally stimulated for fifteen minutes with 200 ng/ml Ang2 or PBS supplemented with peptide to retain the same concentrations. These times were chosen so that both treatment procedures would be completed at the same time. […]"}, "[2]": {"system": "Tie2", "experiment": "Triton X-100 fractionation of MEC lysates, Tie2", "type": "cell-based, human", "description": "Tie2 at EC-EC junctions form actin-rich complexes that are insoluble in Triton X-100-based lysis buffers but are soluble when distributed over the surface of the cell. Therefore, MEC monolayers were treated with various combinations of AXT107, Ang1, and Ang2 and cell lysates were fractionated by their solubility in Triton X-100-based lysis buffers. Experiments including VEGF 165 were also performed since VEGFR2 signaling often opposes the activities of Tie2. In each experiment, 100 μM AXT107 was used since it provided clear results relative to lower concentrations of AXT107.\nNext, experiments were performed to determine whether or not relocation of Tie2 to the insoluble fraction was important for Tie2's activation by Ang2. Tie2 was immunoprecipitated from fractionated MEC lysates exposed to Ang2 with or without AXT107 and then immunoblotted for phospho-Tie2.\nThe isolation of Triton X-100 soluble and insoluble fractions was performed using modifications to previously-described procedures (see, e.g., Lampugnani et al., J Cell Biol. 1995; 129(1):203-217). FN1-coated six-well plates were seeded with 2.5×10^6 cells and cultured for forty-eight hours, as described above. The cultures were then serum starved for ninety minutes in EBM-2 media, treated with 100 μM AXT107 or DMSO vehicle, and fifteen minutes with 1 mM sodium vanadate. […] Samples were analyzed by western blot as described above. […]"}}, "data": [{"sequence": "LRRFSTAPFAFIDINDVINF [AXT107]", "values": [{"measurement": "phospho-Tie2 fluorescence intensity and distribution", "setting": "[1]", "value": "increased overall fluorescence intensity and redistributed phospho-Tie2 along cell-cell junctions and into large clusters"}, {"measurement": "amount of Tie2 in Triton X-100 insoluble fraction", "setting": "[2]; 100 μM AXT107, independent of growth factor treatment", "value": "increased amounts"}, {"measurement": "phospho-Tie2 in fractionated lysates immunoprecipitated for Tie2", "setting": "[2]; MEC exposed to Ang2 with or without AXT107", "value": "observed only in the insoluble fractions of peptide-treated samples"}]}]}
